Consider two compounds from PubChem BioAssay AID1259411 (Chemical Carcinogenesis Research Information System (CCRIS), 2018).

Structures are written as SMILES. The source made the active and inactive calls. The rule behind the calls is not given here.

The series deals with rodent carcinogenicity bioassays, tumor incidence. Nature of the series: CCRIS carcinogenicity studies. The conditions noted are these: Dose: 0, Dose: 0. From the text:
The CCRIS database contains chemical records with carcinogenicity, mutagenicity, tumor promotion, and tumor inhibition test results. It was developed by the National Cancer Institute (NCI). Data are derived from studies cited in primary journals, current awareness tools, NCI reports, and other sources. Test results have been reviewed by experts in carcinogenesis and mutagenesis.
CCRIS provides historical information from the years 1985 - 2011. It is no longer updated.
This is an archive assay for CCRIS carcinogenicity studies.

Consider `ClCCl`, for which the carcinogen call runs as follows: (Species: HAMSTER, Strain/Sex: SYRIAN/FEMALE, Route: INHALATION, 500, 1500, 3500 PPM IN AIR 6H/D 5D/WK FOR 104 WK (STUDY DURATION: 2 YR), 500, 1500, 3500 PPM IN AIR 6H/D 5D/WK FOR 104 WK (STUDY DURATION: 2 YR)) “inactive; negative”; (Species: HAMSTER, Strain/Sex: SYRIAN/MALE, Route: INHALATION, 500, 1500, 3500 PPM IN AIR 6H/D 5D/WK FOR 104 WK (STUDY DURATION: 2 YR), 500, 1500, 3500 PPM IN AIR 6H/D 5D/WK FOR 104 WK (STUDY DURATION: 2 YR)) “inactive; negative”; (Species: MOUSE, Strain/Sex: B6C3F1/FEMALE, Route: INHALATION, 2000, 4000 PPM 6 HR/D, 5 D/WK FOR 102 WK, 2000, 4000 PPM 6 HR/D, 5 D/WK FOR 102 WK, Tumor Site: Type of Lesion: LUNG: ALVEOLAR/BRONCHIOLAR ADENOMA, ALVEOLAR/BRONCHIOLAR CARCINOMA, LIVER: HEPATOCELLULAR ADENOMA, HEPATOCELLULAR CARCIN) “active; positive”; (Species: MOUSE, Strain/Sex: B6C3F1/FEMALE, Route: INHALATION, 2000 PPM 6 HR/D 5 D/WK FOR 26 WK FOLLOWED BY CHAMBER AIR EXPOSURE FOR 78 WK (STUDY DURATION: 104 WK), Tumor Site: Type of Lesion: LUNG: ADENOMA OR CARCINOMA) “active; positive”; (Species: MOUSE, Strain/Sex: B6C3F1/FEMALE, Route: INHALATION, 2000 PPM 6 HR/D 5 D/WK FOR 26 WK FOLLOWING A 78 WK EXPOSURE TO CHAMBER AIR (STUDY DURATION: 104 WK)) “inactive; negative”; (Species: MOUSE, Strain/Sex: B6C3F1/FEMALE, Route: INHALATION, 2000 PPM 6 HR/D 5 D/WK FOR 52 WK FOLLOWED BY CHAMBER AIR EXPOSURE FOR 52 WK (STUDY DURATION: 104 WK), Tumor Site: Type of Lesion: LUNG: ADENOMA OR CARCINOMA, LIVER: ADENOMA OR CARCINOMA) “active; positive”. Further, the carcinogen call is, setting by setting: (Species: MOUSE, Strain/Sex: B6C3F1/FEMALE, Route: INHALATION, 2000 PPM 6 HR/D 5 D/WK FOR 52 WK FOLLOWING A 52 WK EXPOSURE TO CHAMBER AIR (STUDY DURATION: 104 WK)) “inactive; negative”; (Species: MOUSE, Strain/Sex: B6C3F1/FEMALE, Route: INHALATION, 2000 PPM 6 HR/D 5 D/WK FOR 78 WK FOLLOWED BY CHAMBER AIR EXPOSURE FOR 26 WK (STUDY DURATION: 104 WK), Tumor Site: Type of Lesion: LUNG: ADENOMA OR CARCINOMA, LIVER: ADENOMA OR CARCINOMA) “active; positive”; (Species: MOUSE, Strain/Sex: B6C3F1/FEMALE, Route: INHALATION, 2000 PPM 6 HR/D 5 D/WK FOR 78 WK FOLLOWING A 26 WK EXPOSURE TO CHAMBER AIR (STUDY DURATION: 104 WK), Tumor Site: Type of Lesion: LUNG: ADENOMA OR CARCINOMA, LIVER: ADENOMA OR CARCINOMA) “active; positive”; (Species: MOUSE, Strain/Sex: B6C3F1/FEMALE, Route: INHALATION, 2000 PPM 6 HR/D 5 D/WK FOR 104 WK (STUDY DURATION: 104 WK), Tumor Site: Type of Lesion: LIVER: ADENOMA, CARCINOMA, LUNG: ADENOMA, CARCINOMA) “active; positive”; (Species: MOUSE, Strain/Sex: B6C3F1/FEMALE, Route: INHALATION, 2000 PPM 6 HR/D 5 D/WK FOR 104 WK (STUDY DURATION: 104 WK), Tumor Site: Type of Lesion: LUNG: ADENOMA OR CARCINOMA, LIVER: ADENOMA OR CARCINOMA) “active; positive”; (Species: MOUSE, Strain/Sex: B6C3F1/MALE, Route: INHALATION, 2000, 4000 PPM 6 HR/D, 5 D/WK FOR 102 WK, 2000, 4000 PPM 6 HR/D, 5 D/WK FOR 102 WK, Tumor Site: Type of Lesion: LUNG: ALVEOLAR/BRONCHIOLAR ADENOMA, ALVEOLAR/BRONCHIOLAR CARCINOMA, LIVER: HEPATOCELLULAR ADENOMA, HEPATOCELLULAR CARCIN) “active; positive”. Besides, the carcinogen call reads like this: (Species: MOUSE, Strain/Sex: SWISS/FEMALE, Route: GAVAGE, 100, 500 MG/KG IN OLIVE OIL 1/D 5 D/WK FOR 64 WK (STUDY DURATION: LIFETIME), 100, 500 MG/KG IN OLIVE OIL 1/D 5 D/WK FOR 64 WK (STUDY DURATION: LIFETIME)) “inactive; negative”; (Species: RAT, Strain/Sex: F344/FEMALE, Route: INHALATION, 1000, 2000, 4000 PPM 6 HR/D, 5 D/WK FOR 102 WK, 1000, 2000, 4000 PPM 6 HR/D, 5 D/WK FOR 102 WK, Tumor Site: Type of Lesion: MAMMARY GLAND: FIBROADENOMA, ADENOMA OR FIBROADENOMA, HEMATOPOIETIC SYSTEM (LEUKEMIA): MONONUCLEAR CELL LEUKEMIA) “active; positive”; (Species: RAT, Strain/Sex: F344/MALE, Route: INHALATION, 1000, 2000, 4000 PPM 6 HR/D, 5 D/WK FOR 102 WK, 1000, 2000, 4000 PPM 6 HR/D, 5 D/WK FOR 102 WK, Tumor Site: Type of Lesion: MAMMARY GLAND: FIBROADENOMA, ADENOMA OR FIBROADENOMA, TUNICA VAGINALIS: MESOTHELIOMA, MULTIPLE SITES: MESOTHELIOMA, Tumor Site: Type of Lesion: MAMMARY GLAND: FIBROADENOMA, ADENOMA OR FIBROADENOMA, TUNICA VAGINALIS: MESOTHELIOMA, MULTIPLE SITES: MESOTHELIOMA) “active; positive”; (Species: RAT, Strain/Sex: SPRAGUE-DAWLEY/FEMALE, Route: GAVAGE, 100, 500 MG/KG IN OLIVE OIL 1/D 5 D/WK FOR 64 WK (STUDY DURATION: LIFETIME), 100, 500 MG/KG IN OLIVE OIL 1/D 5 D/WK FOR 64 WK (STUDY DURATION: LIFETIME)) “inactive; negative”; (Species: RAT, Strain/Sex: SPRAGUE-DAWLEY/FEMALE, Route: INHALATION, 100 PPM 4 HR/D 5 D/WK FOR 7 WK THEN 7 HR/D 5 D/WK FOR 97 WK BEGINNING WHEN RATS WERE 12 DAY OLD EMBRYOS (STUDY DURATI) “inactive; negative”; (Species: RAT, Strain/Sex: SPRAGUE-DAWLEY/FEMALE, Route: INHALATION, 500, 1500, 3500 PPM IN AIR 6H/D 5D/WK FOR 104 WK (STUDY DURATION: 2 YR), 500, 1500, 3500 PPM IN AIR 6H/D 5D/WK FOR 104 WK (STUDY DURATION: 2 YR)) “inactive; negative”. Also, the carcinogen call is, setting by setting: (Species: RAT, Strain/Sex: SPRAGUE-DAWLEY/MALE, Route: GAVAGE, 100, 500 MG/KG IN OLIVE OIL 1/D 5 D/WK FOR 64 WK (STUDY DURATION: LIFETIME), 100, 500 MG/KG IN OLIVE OIL 1/D 5 D/WK FOR 64 WK (STUDY DURATION: LIFETIME)) “inactive; negative”; (Species: RAT, Strain/Sex: SPRAGUE-DAWLEY/MALE, Route: INHALATION, 100 PPM 4 HR/D 5 D/WK FOR 7 WK THEN 7 HR/D 5 D/WK FOR 97 WK BEGINNING WHEN RATS WERE 12 DAY OLD EMBRYOS (STUDY DURATI) “inactive; negative”; (Species: RAT, Strain/Sex: SPRAGUE-DAWLEY/MALE, Route: INHALATION, 500, 1500, 3500 PPM IN AIR 6H/D 5D/WK FOR 104 WK (STUDY DURATION: 2 YR), 500, 1500, 3500 PPM IN AIR 6H/D 5D/WK FOR 104 WK (STUDY DURATION: 2 YR), Tumor Site: Type of Lesion: SALIVARY GLAND: SARCOMA) “active; positive”.

As to `O[C@H]1C=Cc2c(ccc3c2-c2cccc4cccc-3c24)[C@@H]1O`, the carcinogen call (Species: MOUSE, Strain/Sex: CD-1/FEMALE, Route: INTRAPERITONEAL, 0.275, 1.1 UMOL (TOTAL DOSE) ADMINISTERED OVER DAYS 1, 8, AND 15 OF LIFE (STUDY DURATION: 52 WEEKS), 0.275, 1.1 UMOL (TOTAL DOSE) ADMINISTERED OVER DAYS 1, 8, AND 15 OF LIFE (STUDY DURATION: 52 WEEKS), Tumor Site: Type of Lesion: LUNG: ALVEOLAR/BRONCHIOLAR CARCINOMA) was “active; positive” and the carcinogen call (Species: MOUSE, Strain/Sex: CD-1/MALE, Route: INTRAPERITONEAL, 0.275, 1.1 UMOL(TOTAL DOSE) ADMINISTERED OVER DAYS 1, 8, AND 15 OF LIFE (STUDY DURATION: 52 WEEKS), 0.275, 1.1 UMOL(TOTAL DOSE) ADMINISTERED OVER DAYS 1, 8, AND 15 OF LIFE (STUDY DURATION: 52 WEEKS), Tumor Site: Type of Lesion: LUNG: ALVEOLAR/BRONCHIOLAR CARCINOMA, LIVER: ADENOMA OR CARCINOMA) was “active; positive”.
